≈ marks a conversion by molar mass, not a printed value.
Key:
physchem = details: aqueous solution, pH 6.8
[1] = pampa

- solubility thermodynamic (physchem): 28 µM (≈ 10.3 µg/mL)
- log(permeability) [1]: -3.7
Compound: C[C@H](Oc1ncc(NC(=O)Cc2ccncc2)cc1Cl)c1ccccc1
